Test [1] has as its target T1, SjaM1Pase2 (Saccharina japonica, UniProt A0A2Z4BXC0).
T1 construct: codon-optimized synthetic gene, pGEX-6p-1 (EcoRI/NotI), E. coli BL21(DE3), GST-resin purified
T1 sequence (A0A2Z4BXC0 1-327): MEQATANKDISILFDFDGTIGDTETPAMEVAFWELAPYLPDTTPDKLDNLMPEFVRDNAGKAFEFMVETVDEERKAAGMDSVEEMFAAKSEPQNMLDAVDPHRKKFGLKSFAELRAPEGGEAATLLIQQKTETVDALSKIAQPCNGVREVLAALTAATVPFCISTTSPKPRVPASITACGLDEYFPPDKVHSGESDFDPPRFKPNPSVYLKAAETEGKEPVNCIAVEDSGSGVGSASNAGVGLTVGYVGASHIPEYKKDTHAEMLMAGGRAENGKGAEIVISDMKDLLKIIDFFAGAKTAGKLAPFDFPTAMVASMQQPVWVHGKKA
Put plainly: M1P phosphatase kinetics, Lineweaver-Burk. Type of test: biochemical. The settings on record: apparent; 100 mM Tris-HCl buffer.

Test [2] addresses T2, SjaM1PDH2 (Saccharina japonica, UniProt A0A2Z4BWZ7).
T2 construct: codon-optimized synthetic gene, pET32a (EcoRI/NotI), E. coli BL21(DE3), His-resin purified
T2 sequence (A0A2Z4BWZ7 1-355): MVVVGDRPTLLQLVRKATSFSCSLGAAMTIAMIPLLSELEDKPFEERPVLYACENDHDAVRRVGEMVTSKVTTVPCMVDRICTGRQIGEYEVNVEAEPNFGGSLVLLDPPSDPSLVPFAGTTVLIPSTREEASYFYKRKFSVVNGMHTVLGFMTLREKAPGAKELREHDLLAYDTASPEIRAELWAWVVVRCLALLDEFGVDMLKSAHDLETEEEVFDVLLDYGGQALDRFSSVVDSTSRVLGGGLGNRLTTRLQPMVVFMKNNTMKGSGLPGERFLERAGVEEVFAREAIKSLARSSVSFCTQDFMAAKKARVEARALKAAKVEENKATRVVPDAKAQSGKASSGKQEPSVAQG
Put plainly: F6P reduction kinetics, Lineweaver-Burk. The format is biochemical. To be noted: apparent; co-substrate NADH.

A word on the Km: it is the substrate concentration at which the rate is half of its maximum.

On to `O=P(O)(O)OC[C@@H](O)[C@@H](O)[C@H](O)[C@H](O)CO` [M1P], for which the Km in test [1] is 20 µM.
As to `O=P(O)(O)OC[C@H]1OC(O)(CO)[C@@H](O)[C@@H]1O` (some centres unmarked) [F6P], the Km in test [2] worked out at 2020 µM.

The record behind these values is publication PMC8242268, “Transcriptomic and Proteomic Analysis of Mannitol-metabolism-associated Genes in Saccharina japonica” (Genomics, Proteomics & Bioinformatics, 2020).
